≈ marks a conversion by molar mass, not a printed value. Read-outs that look alike come from different tables or passages of the source.
Tests used:
P. vulgaris 6896 = assay: In vitro antibacterial activity (MIC), P. vulgaris 6896; conditions: Proteus vulgaris, 6896, 18 h
N. catarrhalis 8193 = assay: In vitro antibacterial activity (MIC), N. catarrhalis 8193; conditions: 18 h
S. paratyphi 11737 = assay: In vitro antibacterial activity (MIC), S. paratyphi 11737; format: cell-based; conditions: Salmonella enterica, 18 h
S. aureus Smith = assay: In vitro antibacterial activity (MIC), S. aureus Smith; conditions: Staphylococcus aureus, 18 h
Proteus mirabilis 190 = assay: In vivo antibacterial synergism (mouse), Proteus mirabilis 190; parameters: species or system Proteus mirabilis (infected mice, CD-1); conditions: mice, p.o.; for ED50: Proteus mirabilis, 190, po, 336 h; for PD50 SM/Cpd. (compound part): 0 hours, 20160 min
Method: (§1) The test agents are weighed, suspended in 0.5% aqueous carboxymethyl cellulose, homogenized (glass tissue grinder) and diluted according to the design of the experiment. Mice (male, 18±1 g., CD-1 strain) are pre-weighed, pooled, infected at random intraperitoneally with a 0.5 ml. standardized suspension (LD95 ±5%) of the bacterial organism in 5% gastric mucin and treated at random with single doses of the test agents either at the time of infection or six hours after infecting. The treated groups consist of ten mice per dosage level. Deaths are recorded daily for 14 days and the PD50 (mice are treated at time of infection) and CD50 (mice are treated six hours after infecting) values are calculated by the method of Reed and Muench [Amer. J. Hyg., 27, 493 (1938)].

E. coli 9637 = assay: In vitro antibacterial activity (MIC), E. coli 9637; conditions: Escherichia coli, 9637, 18 h
[1] = Antimalarial blood schizonticidal test in mice; format: in vivo, Plasmodium berghei (infected ICR/HA Swiss mice); parameters: ΔMST (increase in mean survival time): unit: days; conditions: mouse, in vivo, sc, single dose, infected mice; highest dose with no deaths for any reason; read-out: Highest Non-Lethal Dose
Summary of the method: (§2)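 ICR/HA Swiss mice (18–22 g) infected i.p. with 4 × 10^7 P. berghei KBG 173-parasitized cells; single subcutaneous dose in peanut oil at 72 h post-infection, graded dosages. Survival followed 60 days; 60-day survivors counted cured, deaths before day 6 counted toxic; mean survival time compared with untreated controls.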

[2] = test system: Plasmodium berghei KBG 173; assay: Antimalarial blood schizonticidal test in mice; format: in vivo, Plasmodium berghei (infected ICR/HA Swiss mice); parameters: ΔMST (increase in mean survival time): unit: days; conditions: s.c.; for ED100 / minimal effective dose: Plasmodium berghei, sc, 1440 h, single dose; for ED100 / minimal effective dose / Cure/Treat at Min. Curing Dose: 60-day survivors; for ED100: read-out: Lowest Dose Curing All Mice; for minimal effective dose: read-out: Min. Curing Dose; for Cure/Treat at Min. Curing Dose: at the Min. Curing Dose
Summary of the method: as §2

S. aureus 53-180 = assay: In vitro antibacterial activity (MIC), S. aureus 53-180; conditions: Staphylococcus aureus, 53180, 18 h
bacterial infections = assay: Synergism with sulfamethoxazole against bacterial infections in mice, oral; format: in vivo
Method: The invention also provides compounds which will potentiate the antibacterial effects of sulfa drugs.
as §1

K. pneumoniae 10031 = assay: In vitro antibacterial activity (MIC), K. pneumoniae 10031; conditions: Klebsiella pneumoniae, 10031, 18 h
P. cynomolgi = assay: Activity against P. cynomolgi infections in Rhesus monkeys; format: in vivo, P. cynomolgi (infected Rhesus monkeys); conditions: Plasmodium cynomolgi, in Macaca mulatta, 168 h; Rhesus monkeys, oral, seven days; read-out: CD50 (the source's name)
Proteus vulgaris 347 = assay: In vivo antibacterial synergism (mouse), Proteus vulgaris 347; parameters: species or system Proteus vulgaris (infected mice, CD-1); conditions: Proteus vulgaris, 347, po, 336 h, mice, p.o.
Method: as §1

Escherichia coli W-102 = assay: In vivo antibacterial synergism (mouse), Escherichia coli W-102; parameters: species or system Escherichia coli (infected mice, CD-1); conditions: Escherichia coli, W102, po, 336 h; mice, p.o., treated 0 hours after infecting; read-out: PD50 (agent alone)
Method: as §1

Proteus mirabilis 3 = assay: In vivo antibacterial synergism (mouse), Proteus mirabilis 3; parameters: species or system Proteus mirabilis (infected mice, CD-1); conditions: Proteus mirabilis, 3, po, 336 h; mice, p.o., treated 0 hours after infecting; read-out: PD50 (agent alone)
Method: as §1

[3] = treated 0 hours after infecting, read-out: PD50 (agent alone)
[4] = treated 6 hours after infecting, read-out: CD50 (agent alone)

SMILES | MIC (P. vulgaris 6896) | MIC (N. catarrhalis 8193) | MIC (S. paratyphi 11737) | MIC (S. aureus Smith) | ED50 (Proteus mirabilis 190; [3]) | PD50 SM/Cpd. (compound part) (Proteus mirabilis 190; with SM 1.56 mg. per kg.) | MIC (E. coli 9637) | MTD [1] | ED100 [2] | minimal effective dose [2] | Cure/Treat at Min. Curing Dose [2] | MIC (S. aureus 53-180) | synergistic effect with sulfamethoxazole (bacterial infections) | MIC (K. pneumoniae 10031) | other results
Nc1nc(N)c2c(ccc3c2ccn3Cc2ccc(F)cc2)n1 [Example 5, 7-[(4-fluorophenyl)methyl]-7H-pyrrolo[3,2-f]-quinazoline-1,3-diamine] | 0.488 mg/L (≈ 1.59 µM) | 0.0038 mg/L (≈ 0.0124 µM) | 0.488 mg/L (≈ 1.59 µM) | 0.244 mg/L (≈ 0.794 µM) | 9.8 mg/kg | 1.56 mg. per kg. | 0.122 mg/L (≈ 0.397 µM) | 80 mg/kg | 20 mg/kg | 5 mg/kg | 2/5 | 0.122 mg/L (≈ 0.397 µM) | synergistic effect | 0.031 mg/L (≈ 0.101 µM) | ΔMST (increase in mean survival time) ([2]; dose 2.5 mg. per kg.): 7.1
N#Cc1cccc(Cn2ccc3c4c(N)nc(N)nc4ccc32)c1 [Example 15, 7-[(3-cyanophenyl)methyl]-7H-pyrrolo[3,2-f]-quinazoline-1,3-diamine] | 0.976 mg/L (≈ 3.1 µM) | 0.0038 mg/L (≈ 0.0121 µM) | 0.488 mg/L (≈ 1.55 µM) | 0.061 mg/L (≈ 0.194 µM) | 8.8 mg/kg | 2.67 mg. per kg. | 0.122 mg/L (≈ 0.388 µM) | 40 mg/kg | 10 mg/kg | 1.25 mg/kg | 2/5 | 0.031 mg/L (≈ 0.0986 µM) | synergistic effect | 0.031 mg/L (≈ 0.0986 µM) | ΔMST (increase in mean survival time) ([2]; dose 1.25 mg. per kg.): 9.6
COc1ccc(Cn2ccc3c4c(N)nc(N)nc4ccc32)cc1 [Example 34, 7-[(4-methoxyphenyl)methyl]-7H-pyrrolo[3,2-f]quinazoline-1,3-diamine] | 0.976 mg/L (≈ 3.06 µM) | 0.0152 mg/L (≈ 0.0476 µM) | 0.976 mg/L (≈ 3.06 µM) | 0.976 mg/L (≈ 3.06 µM) |  |  | 0.488 mg/L (≈ 1.53 µM) | 160 mg/kg | 20 mg/kg | 5 mg/kg | 2/5 | 0.244 mg/L (≈ 0.764 µM) |  | 0.061 mg/L (≈ 0.191 µM) | ΔMST (increase in mean survival time) ([2]; dose 5 mg. per kg.): 11.2; ED50 (P. cynomolgi): 0.316 mg/kg
N#Cc1ccc(-n2ccc3c4c(N)nc(N)nc4ccc32)cc1 [Example 69, 7-(4-Cyanophenyl)-7H-pyrrolo[3,2-f]-quinazoline-1,3-diamine] | 125 mg/L (≈ 416 µM) | 0.031 mg/L (≈ 0.103 µM) | 31.3 mg/L (≈ 104 µM) | 0.976 mg/L (≈ 3.25 µM) | > 400 mg/kg | 9.39 mg. per kg. | 0.976 mg/L (≈ 3.25 µM) | 20 mg/kg | 20 mg/kg | 5 mg/kg | 3/5 | 0.488 mg/L (≈ 1.62 µM) | synergistic effect | 0.122 mg/L (≈ 0.406 µM) | PD50 SM/Cpd. (compound part) (Proteus mirabilis 190; with SM 0.39 mg. per kg.): > 12.5 mg. per kg.; PD50 SM/Cpd. (compound part) (Proteus mirabilis 190; with SM 0.78 mg. per kg.): > 12.5 mg. per kg.; PD50 SM/Cpd. (compound part) (Proteus mirabilis 190; with SM 3.11 mg. per kg.): 2.55 mg. per kg.; ΔMST (increase in mean survival time) ([2]; dose 2.5 mg. per kg.): 11
Nc1nc(N)c2c(ccc3c2ccn3-c2nccs2)n1 [Example 81, 7-(2-thiazolyl)-7H-pyrrolo[3,2-f]quinazoline-1,3-diamine] | 3.9 mg/L (≈ 13.8 µM) | 0.0152 mg/L (≈ 0.0538 µM) | 1.95 mg/L (≈ 6.91 µM) | 0.488 mg/L (≈ 1.73 µM) | 22.3 mg/kg | > 12.5 mg. per kg. | 0.976 mg/L (≈ 3.46 µM) |  |  | 640 mg/kg | 4/5 | 0.244 mg/L (≈ 0.864 µM) | synergistic effect | 0.244 mg/L (≈ 0.864 µM) | PD50 SM/Cpd. (compound part) (Proteus mirabilis 190; with SM 3.11 mg. per kg.): 6.25 mg. per kg.; ΔMST (increase in mean survival time) ([2]; dose 160 mg. per kg.): 8.3
Cc1cc2c3c(N)nc(N)nc3ccc2n1Cc1ccccc1 [Example 100, 8-methyl-7-(phenylmethyl)-7H-pyrrolo[3,2-f]-quinazoline-1,3-diamine] | 15.6 mg/L (≈ 51.4 µM) | 0.122 mg/L (≈ 0.402 µM) | 3.9 mg/L (≈ 12.9 µM) | 1.95 mg/L (≈ 6.43 µM) | 36.6 mg/kg | 3.11 mg. per kg. | 0.488 mg/L (≈ 1.61 µM) |  |  |  |  | 0.976 mg/L (≈ 3.22 µM) | synergistic effect | 0.244 mg/L (≈ 0.804 µM) | 
Cc1cc(NS(=O)(=O)c2ccc(N)cc2)no1 [SM, sulfomethoxazole, reference compound] |  |  |  |  |  |  |  |  |  |  |  |  |  |  | ED50 (Proteus mirabilis 190; [4]): 14 mg/kg; ED50 (Proteus vulgaris 347; [3]): 43.2 mg/kg; ED50 (Proteus vulgaris 347; [4]): 60 mg/kg; ED50 (Escherichia coli W-102): 95 mg/kg; ED50 (Proteus mirabilis 3): 9.9 mg/kg

— patent publication US4118561A, “7-(Substituted)-7H-pyrrolo[3,2-f]quinazoline-1,3-diamines” (priority 1977, dated 1978)
